# Assay results: PubChem BioAssay AID1259407 (Chemical Carcinogenesis Research Information System (CCRIS), 2018)
# Calls of active or inactive are those of the source. The rule behind the calls is not given here.
# System: CCRIS mutagenicity, Ames/micronucleus/aberration tests
# Experiment: CCRIS mutagenicity studies
# [1] = Test System: AMES SALMONELLA TYPHIMURIUM, Strain/Indicator: TA98, Metabolic Activation: NONE, Method: PREINCUBATION
# [2] = Test System: AMES SALMONELLA TYPHIMURIUM, Strain/Indicator: TA100, Metabolic Activation: NONE, Method: PREINCUBATION
# [3] = Test System: AMES SALMONELLA TYPHIMURIUM, Strain/Indicator: TA1535, Metabolic Activation: NONE, Method: PREINCUBATION
# [4] = Test System: AMES SALMONELLA TYPHIMURIUM, Strain/Indicator: TA1537, Metabolic Activation: NONE, Method: PREINCUBATION
# [5] = Test System: MOUSE LYMPHOMA, Strain/Indicator: L5178Y (TK+/TK-), Metabolic Activation: NONE, Method: SUSPENSION/PLATE
compound,measurement,setting,value
[Na+],mutagenic call,"Test System: AMES SALMONELLA TYPHIMURIUM, Strain/Indicator: TA97, Metabolic Activation: HAMSTER, LIVER, S-9, AROCLOR 1254 (10 OR 30%), Method: PREINCUBATION",inactive; negative
same,mutagenic call,"Test System: AMES SALMONELLA TYPHIMURIUM, Strain/Indicator: TA97, Metabolic Activation: NONE, Method: PREINCUBATION",inactive; negative
same,mutagenic call,"Test System: AMES SALMONELLA TYPHIMURIUM, Strain/Indicator: TA97, Metabolic Activation: RAT, LIVER, S-9, AROCLOR 1254 (10 OR 30%), Method: PREINCUBATION",inactive; negative
same,mutagenic call,"Test System: AMES SALMONELLA TYPHIMURIUM, Strain/Indicator: TA98, Metabolic Activation: HAMSTER, LIVER, S-9, AROCLOR 1254 (10 OR 30%), Method: PREINCUBATION",inactive; negative
same,mutagenic call,[1],inactive; negative
same,mutagenic call,"Test System: AMES SALMONELLA TYPHIMURIUM, Strain/Indicator: TA98, Metabolic Activation: RAT, LIVER, S-9, AROCLOR 1254 (10 OR 30%), Method: PREINCUBATION",inactive; negative
same,mutagenic call,"Test System: AMES SALMONELLA TYPHIMURIUM, Strain/Indicator: TA100, Metabolic Activation: HAMSTER, LIVER, S-9, AROCLOR 1254 (10 OR 30%), Method: PREINCUBATION",inactive; negative
same,mutagenic call,[2],inactive; negative
same,mutagenic call,"Test System: AMES SALMONELLA TYPHIMURIUM, Strain/Indicator: TA100, Metabolic Activation: RAT, LIVER, S-9, AROCLOR 1254 (10 OR 30%), Method: PREINCUBATION",inactive; negative
same,mutagenic call,"Test System: AMES SALMONELLA TYPHIMURIUM, Strain/Indicator: TA1535, Metabolic Activation: HAMSTER, LIVER, S-9, AROCLOR 1254 (10 OR 30%), Method: PREINCUBATION",inactive; negative
same,mutagenic call,[3],inactive; negative
same,mutagenic call,"Test System: AMES SALMONELLA TYPHIMURIUM, Strain/Indicator: TA1535, Metabolic Activation: RAT, LIVER, S-9, AROCLOR 1254 (10 OR 30%), Method: PREINCUBATION",inactive; negative
same,mutagenic call,"Test System: AMES SALMONELLA TYPHIMURIUM, Strain/Indicator: TA1537, Metabolic Activation: HAMSTER, LIVER, S-9, AROCLOR 1254 (30%), Method: PREINCUBATION",inactive; negative
same,mutagenic call,[4],inactive; negative
same,mutagenic call,"Test System: AMES SALMONELLA TYPHIMURIUM, Strain/Indicator: TA1537, Metabolic Activation: RAT, LIVER, S-9, AROCLOR 1254 (30%), Method: PREINCUBATION",inactive; negative
same,mutagenic call,"Test System: CHINESE HAMSTER OVARY, Strain/Indicator: CHO-K1-BH4 (HGPRT), Metabolic Activation: NONE, Method: SUSPENSION/PLATE",inactive; negative
same,mutagenic call,"Test System: CHINESE HAMSTER OVARY, Strain/Indicator: CHO-K1-BH4 (HGPRT), Metabolic Activation: RAT, LIVER, S-9, AROCLOR, Method: SUSPENSION/PLATE",inactive; negative
same,mutagenic call,[5],active; positive
CC(Cc1ccc(O)c(O)c1)C(C)Cc1ccc(O)c(O)c1 (configuration not stated),mutagenic call,"Test System: AMES SALMONELLA TYPHIMURIUM, Strain/Indicator: TA98, Metabolic Activation: HAMSTER, LIVER, S-9, AROCLOR 1254, Method: STANDARD PLATE",inactive; negative
same,mutagenic call,"Test System: AMES SALMONELLA TYPHIMURIUM, Strain/Indicator: TA98, Metabolic Activation: NONE, Method: STANDARD PLATE",inactive; negative
same,mutagenic call,"Test System: AMES SALMONELLA TYPHIMURIUM, Strain/Indicator: TA98, Metabolic Activation: RAT, LIVER, S-9, AROCLOR 1254, Method: STANDARD PLATE",inactive; negative
same,mutagenic call,"Test System: AMES SALMONELLA TYPHIMURIUM, Strain/Indicator: TA100, Metabolic Activation: HAMSTER, LIVER, S-9, AROCLOR 1254, Method: STANDARD PLATE",inactive; negative
same,mutagenic call,"Test System: AMES SALMONELLA TYPHIMURIUM, Strain/Indicator: TA100, Metabolic Activation: NONE, Method: STANDARD PLATE",inactive; negative
same,mutagenic call,"Test System: AMES SALMONELLA TYPHIMURIUM, Strain/Indicator: TA100, Metabolic Activation: RAT, LIVER, S-9, AROCLOR 1254, Method: STANDARD PLATE",inactive; negative
same,mutagenic call,"Test System: AMES SALMONELLA TYPHIMURIUM, Strain/Indicator: TA1535, Metabolic Activation: HAMSTER, LIVER, S-9, AROCLOR 1254, Method: STANDARD PLATE",inactive; negative
same,mutagenic call,"Test System: AMES SALMONELLA TYPHIMURIUM, Strain/Indicator: TA1535, Metabolic Activation: NONE, Method: STANDARD PLATE",inactive; negative
same,mutagenic call,"Test System: AMES SALMONELLA TYPHIMURIUM, Strain/Indicator: TA1535, Metabolic Activation: RAT, LIVER, S-9, AROCLOR 1254, Method: STANDARD PLATE",inactive; negative
same,mutagenic call,"Test System: AMES SALMONELLA TYPHIMURIUM, Strain/Indicator: TA1537, Metabolic Activation: HAMSTER, LIVER, S-9, AROCLOR 1254, Method: STANDARD PLATE",inactive; negative
same,mutagenic call,"Test System: AMES SALMONELLA TYPHIMURIUM, Strain/Indicator: TA1537, Metabolic Activation: NONE, Method: STANDARD PLATE",inactive; negative
same,mutagenic call,"Test System: AMES SALMONELLA TYPHIMURIUM, Strain/Indicator: TA1537, Metabolic Activation: RAT, LIVER, S-9, AROCLOR 1254, Method: STANDARD PLATE",inactive; negative
same,mutagenic call,"Test System: AMES SALMONELLA TYPHIMURIUM, Strain/Indicator: TA1538, Metabolic Activation: HAMSTER, LIVER, S-9, AROCLOR 1254, Method: STANDARD PLATE",inactive; negative
same,mutagenic call,"Test System: AMES SALMONELLA TYPHIMURIUM, Strain/Indicator: TA1538, Metabolic Activation: NONE, Method: STANDARD PLATE",inactive; negative
same,mutagenic call,"Test System: AMES SALMONELLA TYPHIMURIUM, Strain/Indicator: TA1538, Metabolic Activation: RAT, LIVER, S-9, AROCLOR 1254, Method: STANDARD PLATE",inactive; negative
same,mutagenic call,[5],active; positive. reevaluation of results: positive
same,mutagenic call,"Test System: MOUSE LYMPHOMA, Strain/Indicator: L5178Y (TK+/TK-), Metabolic Activation: RAT, LIVER, S-9, AROCLOR 1254, Method: SUSPENSION/PLATE",inactive; negative. reevaluation of results: negative
CCCCCCCCCCCCCCC1CO1 (configuration not stated),mutagenic call,"Test System: AMES SALMONELLA TYPHIMURIUM, Strain/Indicator: TA98, Metabolic Activation: HAMSTER, LIVER, S-9, AROCLOR 1254 (10%), Method: PREINCUBATION",inactive; negative
same,mutagenic call,[1],inactive; negative
same,mutagenic call,"Test System: AMES SALMONELLA TYPHIMURIUM, Strain/Indicator: TA98, Metabolic Activation: RAT, LIVER, S-9, AROCLOR 1254 (10%), Method: PREINCUBATION",inactive; negative
same,mutagenic call,"Test System: AMES SALMONELLA TYPHIMURIUM, Strain/Indicator: TA100, Metabolic Activation: HAMSTER, LIVER, S-9, AROCLOR 1254 (10%), Method: PREINCUBATION",inactive; negative
same,mutagenic call,[2],inactive; negative
same,mutagenic call,"Test System: AMES SALMONELLA TYPHIMURIUM, Strain/Indicator: TA100, Metabolic Activation: RAT, LIVER, S-9, AROCLOR 1254 (10%), Method: PREINCUBATION",inactive; negative
same,mutagenic call,"Test System: AMES SALMONELLA TYPHIMURIUM, Strain/Indicator: TA1535, Metabolic Activation: HAMSTER, LIVER, S-9, AROCLOR 1254 (10%), Method: PREINCUBATION",inactive; negative
same,mutagenic call,[3],inactive; negative
same,mutagenic call,"Test System: AMES SALMONELLA TYPHIMURIUM, Strain/Indicator: TA1535, Metabolic Activation: RAT, LIVER, S-9, AROCLOR 1254 (10%), Method: PREINCUBATION",inactive; negative
same,mutagenic call,"Test System: AMES SALMONELLA TYPHIMURIUM, Strain/Indicator: TA1537, Metabolic Activation: HAMSTER, LIVER, S-9, AROCLOR 1254 (10%), Method: PREINCUBATION",inactive; negative
same,mutagenic call,[4],inactive; negative
same,mutagenic call,"Test System: AMES SALMONELLA TYPHIMURIUM, Strain/Indicator: TA1537, Metabolic Activation: RAT, LIVER, S-9, AROCLOR 1254 (10%), Method: PREINCUBATION",inactive; negative
